Data on eleven compounds can be found in patent publication US11447511B2, “Dioxolane analogues of uridine for the treatment of cancer” (MEDIVIR AB, priority 2014, dated 2022).

The nature of data set [1]: Cell cytotoxicity assay, HUH7. The format is cell-based. The conditions noted are these: human; Huh7 cells, 5 days at 37° C., XTT dye. As to the method: (§1) Cells were seeded 24 hours prior to compound addition. Each test compound (serially diluted from 100 μM) was added to Huh7 (1.5×10^4 cells/well) or HepG2 (1.5×10^4 cells/well), and allowed to incubate for 5 days at 37° C. A medium only control was used to determine the minimum absorbance value and an untreated cell value. At the end of the growth period, XTT dye from Polysciences Europe GmbH was added to each well. The absorbance at 450 nm with a reference wavelength of 600 nm was read with a Sunrise (Tecan) using the medium only control wells as blanks. The 50% inhibition value (CC50) was determined by comparing the degree of inhibition (compared to cell control) plotted against compound concentration. Results from the dilution series were fitted to a sigmoidal dose-response curve.
(§2) Compounds of the invention were evaluated in these assays to assess the stability in human intestinal S9 fraction (HIS9) and human liver S9 fraction (HLS9), and for Cell Cytotoxicity in HUH7, HEP3B and HEPG2 cells.

The nature of data set [2]: Stability in human liver S9 fraction (HLS9). The class given is in vitro ADME. The conditions noted are these: human liver S9 0.4 mg protein/mL, 5 μM test compound, 37° C.; for microsomal CLint at 5 μM: liver S9 fraction, pH 7.4. As to the method:
(§3) Stability in Human Intestinal S9 Fraction (HIS9) and in Human Liver S9 Fraction (HLS9),
(§4) Stock solutions of each test compound (10 mM) were prepared in DMSO and stored at −20° C. Prior to the start of the experiment, the test compounds were diluted to 500 μM in 50% acetonitrile in water. The reaction mixture was prepared in a total volume of 250 μL containing 5 mM MgC2, 1 mM NADPH and 5 μM test compound in 50 mM potassium phosphate buffer (pH 7.4). The reaction was initiated by addition of human liver or intestinal S9 fraction with a final concentration of 0.4 mg protein/mL (Xeno Tech). The reaction mixture was incubated on an orbital shaker at 37° C. At the desired time points (0, 10, 30 and 60 minutes) aliquots of 50 μL were taken and the reaction was stopped by mixing with 150 μL acetonitrile containing internal standard. Standard solutions of each test compound were prepared from the 500 μM solution by diluting the solution to a final concentration of 5 μM in boiled human S9 (0.4 mg protein/mL), 5 mM MgCl2 and 50 mM potassium phosphate buffer (pH 7.4). The standards and samples were kept on ice for 30 min then centrifuged at 3 000 g for 20 minutes at 10° C., there after 10 μL of supernatant was mixed with 200 μL 50% acetonitrile in water. 0.5 μM of each test compound in 50% acetonitrile in water was injected into the LC/MS-MS to determine the daughter ion, declustring potential (DP), collision energy (CE) and collision cell exit potential (CXP) in order to develop a LC/MS-MS method. The compounds were separated using a C18 column with a QTRAP5500 system. The mobile phase consisted of solvent A (98% water, 2% acetonitrile, 0.1% acetic acid or 10 mM ammonium acetate) and solvent B (80% acetonitrile, 20% water, 0.1% acetic acid or 10 mM ammonium acetate). Elution of the compounds was performed by using a gradient of solvent B from 0% to 100%. 5 μL of standard points and samples were injected for analysis with QTRAP5500.
(§5) The amount of parent compound was determined on the basis of the peak area for each time point compared to standard which was set to 5 μM. Intrinsic clearance (CLint) and half-life (t1/2) were determined from the disappearance curves of the test compound using Excel software.

The nature of data set [3]: Cell cytotoxicity assay, HEPG2. The format is cell-based. Particulars: human; HepG2 cells, 5 days at 37° C., XTT dye. As to the method: as §1, §2
Background: Formazan colour is commonly taken as a measure of viable cells.

Data set [4] is described as follows: Cell cytotoxicity assay, HEP3B. The class given is cell-based. Particulars: human, HEP3B cells. As to the method: as §1, §2
Data set [5] can be described thus: Stability in human intestinal S9 fraction (HIS9). The format is in vitro ADME. Particulars: human intestinal S9 0.4 mg protein/mL, 5 μM test compound, 37° C.; for microsomal CLint at 5 μM: intestinal S9 fraction, pH 7.4. As to the method:
as §3, §4, §5

Another data set has as its system Huh7. In words: Cell cytotoxicity assay, HUH7. The class given is cell-based. Particulars: Huh7 cells, 5 days at 37° C., XTT dye. The procedure: as §1, §2
The next data set deals with HepG2. As to the kind of experiment: Cell cytotoxicity assay, HEPG2. The class given is cell-based. Particulars: HepG2 cells, 5 days at 37° C., XTT dye. As to the method: as §1, §2
The next data set has as its system HEP3B. As to the kind of experiment: Cell cytotoxicity assay, HEP3B. The class given is cell-based. The conditions noted are these: HEP3B cells. The procedure:
as §1, §2

Another data set has as its system HBV in Hep G2.2.15 cells. Particulars: cited from earlier work.
Another data set concerns HIV. The conditions noted are these: relative to 3TC; cited from earlier work.

Bounds are passed on as bounds.

In general, CC50 refers to the concentration giving 50% cytotoxicity. Low values mean harm at low concentration, high ones better tolerance by the cells. Usually microsomal CLint stands for the capacity of the preparation to metabolise the compound, expressed as a volume cleared per time. A higher microsomal CLint goes with faster metabolism. As to `COC(=O)[C@H](C)NP(=O)(OC[C@H]1OC[C@@H](n2ccc(N)nc2=O)O1)Oc1ccc(Br)cc1` (single isomer, unassigned) [27 dia-2], the CC50 at 5 days was determined as 1020 nM in [1], 223 nM in data set [3] and 348 nM in data set [4]. The compound also showed a microsomal CLint at 5 μM in data set [2] of 57 µL/min/mg. The “CLint Intestinal S9” value in data set [5] is 6 µL/min/mg.

For the compound `COC(=O)[C@H](Cc1ccccc1)NP(=O)(OC[C@H]1OC[C@@H](n2ccc(N)nc2=O)O1)Oc1ccccc1` (single isomer, unassigned) [28 dia-2], the values for the CC50 at 5 days in data set [1] and in [3] were 15600 nM and 2720 nM, respectively. The microsomal CLint at 5 μM came to 20 µL/min/mg in data set [2] and 40 µL/min/mg in data set [5].

For `CCC[C@H](C)OC(=O)[C@H](C)NP(=O)(OC[C@H]1OC[C@@H](n2cc(F)c(N)nc2=O)O1)Oc1cccc(C2CC2)c1` (single isomer, unassigned) [29 dia-2], the figures for the CC50 at 5 days in data set [1] and in [4] were 495 nM and 75 nM, respectively. The microsomal CLint at 5 μM stood at 36 µL/min/mg in data set [2] and 18 µL/min/mg in data set [5].

For the compound `COC(=O)[C@H](C)NP(=O)(OC[C@H]1OC[C@@H](n2ccc(N)nc2=O)O1)Oc1ccc(C2CC2)cc1` (single isomer, unassigned) [34 dia-2], the figures for the CC50 at 5 days in data set [1], in data set [3] and in data set [4] were 524 nM, 236 nM and 210 nM, respectively. The microsomal CLint at 5 μM in data set [2] was 64 µL/min/mg. Further, the “CLint Intestinal S9” value in data set [5] was 6 µL/min/mg.

Take `CC(C)OC(=O)[C@H](C)NP(=O)(OC[C@H]1OC[C@@H](n2ccc(N)nc2=O)O1)Oc1ccccc1` (single isomer, unassigned) [Example 2]: the CC50 at 5 days was determined as 1750 nM in [1] and 248 nM in data set [3]. Besides, the microsomal CLint at 5 μM in data set [2] amounted to 13 µL/min/mg. The “CLint Intestinal S9” value in data set [5] is 6 µL/min/mg.

Consider `CC(C)OC(=O)[C@H](C)NP(=O)(OC[C@H]1OC[C@@H](n2ccc(N)nc2=O)O1)Oc1ccccc1` (single isomer, unassigned) [Example 3], for which the values for the CC50 at 5 days in data set [1] and in data set [3] were 3280 nM and 371 nM, respectively. The same compound had a microsomal CLint at 5 μM in [2] of 8 µL/min/mg. In addition, the “CLint Intestinal S9” value in data set [5] came to 6 µL/min/mg.

For `CCC[C@H](C)OC(=O)[C@H](C)NP(=O)(OC[C@H]1OC[C@@H](n2ccc(N)nc2=O)O1)Oc1ccccc1` (single isomer, unassigned; dia-2) [20 dia-2], the CC50 with Huh7 was determined as 73 nM; with HepG2, 60 nM; in the data set with HEP3B, 78 nM. The “CLint Liver S9” value in data set [2] is 25 µL/min/mg. Further, the “CLint Intestinal S9” value in data set [5] was 6 µL/min/mg.

For the compound `COC(=O)[C@H](C)NP(=O)(OC[C@H]1OC[C@@H](n2ccc(N)nc2=O)O1)Oc1ccccc1` (single isomer, unassigned; dia-2) [26 dia-2], the CC50 in the data set on Huh7 worked out at 4730 nM; in the data set with HepG2, 1060 nM; in the data set with HEP3B it was 4020 nM. Besides, the “CLint Liver S9” value in data set [2] was 10 µL/min/mg. In data set [5], the “CLint Intestinal S9” value came to 6 µL/min/mg.

For the compound `COC(=O)C(C)NP(=O)(OC[C@@H]1O[C@H](n2ccc(N)nc2=O)CS1)Oc1ccccc1` (stereo partly drawn) [CF 1109], the “effectiveness against HBV compared with parent nucleoside 3TC” value with HBV in Hep G2.2.15 cells is “virtually equally effective”. For the same compound, the “fold less active against HIV than parent nucleoside 3TC” value in the data set on HIV is on record as ~250 fold.

On to `CC(C)OC(=O)[C@H](C)NP(=O)(OC[C@H]1OC[C@@H](n2ccc(=O)[nH]c2=O)O1)Oc1ccccc1` (stereo partly drawn) [Example 1, (2S)-isopropyl 2-(((((2S,4S)-4-(2,4-dioxo-3,4-dihydropyrimidin-1(2H)-yl)-1,3-dioxolan-2-yl)methoxy)(phenoxy)phosphoryl)amino)propanoate], for which the CC50 at 5 days in data set [1] and in data set [3] was > 100000 nM each time. Further, the microsomal CLint at 5 μM in data set [2] worked out at 12 µL/min/mg. The “CLint Intestinal S9” value in data set [5] amounted to 6 µL/min/mg.

Consider `Nc1ccn([C@@H]2CO[C@H](CO)O2)c(=O)n1` [Troxacitabine, 4-amino-1-((2S,4S)-2-(hydroxymethyl)-1,3-dioxolan-4-yl)pyrimidin-2(1H)-one, reference compound], for which the CC50 at 5 days in data set [1] stood at 646 nM; in [3] it was 218 nM; in [4], 279 nM.
